In publication PMC9486808 (ACS Chemical Biology, 2022):
Entries after “also recorded” stand apart in the source; their conditions may differ. Where two headings read alike, the source gives them in different places. Positions of bridges follow the written chain, without caps; N, C: chain ends. Non-standard residues stand in square brackets, D forms with d. Residues, ends and D or L forms follow the SMILES beside them.

Experiments:
[1] = target: T1, H1 ectodomain (Influenza A virus, UniProt C3W5S1); experiment: biochemical; format: binding, Influenza A virus A/California/04/2009 (H1N1)
[2] = target: H1 HA (Influenza A virus, UniProt C3W5S1); format: binding, Influenza A virus A/California/04/2009 (H1N1)
[3] = test system: H1N1pdm09 (A/Netherlands/602/2009); format: cell-based, Influenza A virus
[4] = test system: H1N1pr8 (A/PR8/8/34/Mount Sinai); format: cell-based, Influenza A virus
[5] = test system: H3N1 virus carrying H3 HA of A/Bilthoven/1761/76 (H3N2) in the H1N1pr8 background; format: cell-based, Influenza A virus
[6] = target: H1 ectodomain of A/California/04/2009 (H1N1) (Influenza A virus, UniProt C3W5S1); format: binding, Influenza A virus A/California/04/2009 (H1N1)
[7] = test system: H1N1pdm09 (A/Netherlands/602/2009); details: for IC50: 16 h
[8] = test system: H5N1 virus carrying H5 HA of A/duck/Hunan/795/2002 in the H1N1pr8 genetic background; details: 16 h
[9] = in vitro; details: HeLa R19 cells and MDCKI cells
[10] = target: T1, H1 ectodomain; experiment: biochemical; format: binding, Influenza A virus A/California/04/2009 (H1N1); details: read-out: Kd1
[11] = target: H1stem; format: binding, Influenza A virus A/Kentucky/UR06-0258/2007 (H1N1); details: read-out: Kd1
[12] = test system: H3 ectodomain; format: binding, Influenza A virus A/Fujian/411/2002 (H3N2); details: for Kd: read-out: Kd1
[13] = test system: H5N1 virus carrying H5 HA of A/duck/Hunan/795/2002 in the H1N1pr8 genetic background; format: cell-based, Influenza A virus
[14] = test system: H1N1pdm09; parameters: species or system Influenza A virus
[15] = target: full-length H1 of A/California/04/2009 (H1N1) (Influenza A virus, UniProt C3W5S1); format: cell-based, Influenza A virus A/California/04/2009 (H1N1); details: pH 5

| Compound | Kd [1] [nM] | ΔTm (°C), purified peptide [2] [°C] | Inhibition of infection (infected cells relative to untreated control) [3] | Inhibition of infection (infected cells relative to untreated control) [4] | Inhibition of infection (infected cells relative to untreated control) [5] | Binding region in the HA stem (HDX-MS) [6] | Inhibition of infection at a single concentration [7] | IC50 [7] [nM] | IC50 [8] [nM] | CC50 at 72 h [9] [nM] | Kd [10] [nM] | Kd [11] [nM] | Peptide binding by SPR (in words) [12] | Kd [12] [nM] | ΔTm (°C), crude peptide [2] [°C] | Inhibition of infection (infected cells relative to untreated control) [13] | Interference of the peptide itself with hemagglutination [14] | Loss of hemagglutination after pH 5 incubation ([14]; pH 5) | Syncytia formation (cell-cell fusion) [15] | Neutralizing activity in the presence of serum proteins [7] |
| --- | --- | --- | --- | --- | --- | --- | --- | --- | --- | --- | --- | --- | --- | --- | --- | --- | --- | --- | --- | --- |
| CC(C)C[C@H](NC(=O)[C@@H]1CSCC(=O)N[C@@H](Cc2ccc(O)cc2)C(=O)N[C@@H](Cc2c[nH]c3ccccc23)C(=O)N[C@@H](Cc2c[nH]cn2)C(=O)N[C@@H](CCCCN)C(=O)N[C@@H](CC(N)=O)C(=O)N[C@@H](CCCCN)C(=O)N[C@@H](Cc2ccc(O)cc2)C(=O)N[C@@H](C(C)C)C(=O)N[C@@H](CC(C)C)C(=O)N[C@@H]([C@@H](C)O)C(=O)N[C@@H](Cc2ccc(O)cc2)C(=O)N[C@@H](CO)C(=O)N1)C(=O)N[C@@H](Cc1ccccc1)C(=O)N[C@@H](C)C(=O)N[C@@H](C)C(=O)NCC(N)=O [L2] ({CH2CO}-YWHKNKYVLTYSCLFAAG-NH2; thioether N-13) | 2.4 | 1 | strongly inhibited infection | strongly inhibited infection | fell short of inhibiting | aa 369–387 | strong inhibition of infection | 69 ± 8.3 | 1050 ± 300 | > 5000 | – | – | – | – | – | – | – | – | – | – |
| CC(C)[C@@H]1NC(=O)[C@H](Cc2c[nH]c3ccccc23)NC(=O)[C@H](CCCNC(=N)N)NC(=O)[C@H](Cc2ccc(O)cc2)NC(=O)CSC[C@@H](C(=O)NCC(N)=O)NC(=O)[C@H](C(C)C)NC(=O)[C@H](C(C)C)NC(=O)[C@H](Cc2ccccc2)NC(=O)[C@H](Cc2ccc(O)cc2)NC(=O)[C@@H]2CCCN2C(=O)[C@H](CCC(=O)O)NC(=O)[C@H](CO)NC(=O)[C@H](Cc2ccccc2)NC(=O)[C@H](Cc2ccccc2)NC(=O)[C@H](CO)NC(=O)[C@H]([C@@H](C)O)NC(=O)[C@H](Cc2c[nH]c3ccccc23)NC1=O [L4] ({CH2CO}-YRWVWTSFFSEPYFVVCG-NH2; thioether N-17) | ≤ 1 | 3.4 | strongly inhibited infection | strongly inhibited infection | fell short of inhibiting | aa 369–387 | strong inhibition of infection | 104 ± 10.3 | 234 ± 66 | > 5000 | 20.8 ± 1.4 | 2.6 ± 0.1 | no binding was observed | > 50 | – | – | – | – | – | – |
| CC[C@H](C)[C@@H]1NC(=O)[C@H](CCCCN)NC(=O)[C@H](CO)NC(=O)[C@H](Cc2c[nH]c3ccccc23)NC(=O)[C@H](Cc2ccc(O)cc2)NC(=O)[C@H]([C@@H](C)CC)NC(=O)[C@H](CCCCN)NC(=O)[C@H](CC(C)C)NC(=O)[C@@H](Cc2ccc(O)cc2)NC(=O)CSC[C@@H](C(=O)NCC(N)=O)NC(=O)[C@H](Cc2c[nH]c3ccccc23)NC(=O)[C@H](CCC(=O)O)NC(=O)[C@H](CO)NC(=O)[C@H](C(C)C)NC(=O)[C@H](CC(C)C)NC(=O)CNC(=O)[C@H](Cc2c[nH]cn2)NC1=O [S3] ({CH2CO}-[dY]LKIYWSKIHGLVSEWCG-NH2; thioether N-17) | ≤ 1 | 4.2 | strongly inhibited infection | strongly inhibited infection | fell short of inhibiting | aa 369–387 | strong inhibition of infection | 47.5 ± 7.1 | 17.5 ± 1.7 | > 5000 | 16.8 ± 0.6 | 37.2 ± 18.8 | no binding was observed | > 50 | 3.8 | – | – | – | – | – |
| CC(C)C[C@@H]1NC(=O)[C@H](C(C)C)NC(=O)[C@@H](Cc2ccc(O)cc2)NC(=O)CSC[C@@H](C(=O)NCC(N)=O)NC(=O)[C@H](C(C)C)NC(=O)[C@H](Cc2c[nH]c3ccccc23)NC(=O)[C@H](Cc2c[nH]cn2)NC(=O)[C@H]([C@@H](C)O)NC(=O)[C@H](C)NC(=O)[C@H](CC(C)C)NC(=O)[C@H]([C@@H](C)O)NC(=O)CNC(=O)[C@H](Cc2c[nH]cn2)NC(=O)[C@H](CC(=O)O)NC(=O)[C@H](Cc2c[nH]c3ccccc23)NC(=O)[C@H](CCCNC(=N)N)NC(=O)[C@H](Cc2ccccc2)NC1=O [S5] ({CH2CO}-[dY]VLFRWDHGTLATHWVCG-NH2; thioether N-17) | ≤ 1 | 7.8 | strongly inhibited infection | strongly inhibited infection | fell short of inhibiting | aa 369–387 | strong inhibition of infection | – | – | > 5000 | 8.6 ± 1.1 | 11.3 ± 2.5 | no binding was observed | > 50 | 4.8 | cross-neutralization was observed | does not interfere with hemagglutination | prevented by S5 | greatly reduced; also recorded: inhibits fusion between H1 expressing cells | unaffected by the addition of serum proteins |
